Assay results reported in patent publication US9540392B2, “Thienopyrimidines” (BAYER PHARMA AKTIENGESELLSCHAFT, priority 2012, dated 2017).

Biological target: T1, human full-length MKNK1 (Homo sapiens, UniProt Q9BUB5, T385D)
T1 construct: GST (N); purchased Carna Biosciences 02-145; host or cells: insect cells (baculovirus expression system)
Test: MKNK1 kinase high ATP assay (TR-FRET)
Assay type: biochemical
Conditions: 2 mM ATP, after preincubation with MKNK1; read-out: MKNK1 IC50 (MKNK1 high ATP)
In short: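 Compound was preincubated 15 min at 22° C. with MKNK1 in 50 mM HEPES pH 7.5, 5 mM MgCl2, 1.0 mM DTT, then the reaction ran 30 min at 22° C. with 2 mM ATP and 0.06 μM biotinylated peptide (final).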

T1 sequence (Q9BUB5 1-424 isoform Q9BUB5-2 T344D): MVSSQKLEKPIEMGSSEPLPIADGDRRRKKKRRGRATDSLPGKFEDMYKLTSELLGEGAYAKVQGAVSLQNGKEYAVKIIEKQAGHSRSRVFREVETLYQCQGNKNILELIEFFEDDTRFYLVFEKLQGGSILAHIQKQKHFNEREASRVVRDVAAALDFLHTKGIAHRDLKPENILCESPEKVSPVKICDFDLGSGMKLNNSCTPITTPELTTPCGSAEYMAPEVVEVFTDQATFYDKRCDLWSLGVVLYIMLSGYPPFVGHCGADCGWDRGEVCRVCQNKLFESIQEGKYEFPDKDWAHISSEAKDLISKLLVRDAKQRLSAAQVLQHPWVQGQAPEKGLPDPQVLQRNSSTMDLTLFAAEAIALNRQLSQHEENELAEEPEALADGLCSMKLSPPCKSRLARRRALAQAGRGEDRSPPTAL

`COc1cc2[nH]ncc2cc1Nc1ncnc2sc3c(c12)CCC(C(=O)N1CCOCC1)C3` (racemic) [Example 175, (RS)-{4-[(6-Methoxy-1H-indazol-5-yl)amino]-5,6,7,8-tetrahydro[1]benzothieno[2,3-d]pyrimidin-7-yl}(morpholin-4-yl)methanone] gave an IC50 of 0.5 nM.
`COc1cc2[nH]ncc2cc1Nc1ncnc2sc3c(c12)CCC(C(=O)N(C)C1CC1)C3` (racemic) [Example 181, (RS)—N—Cyclopropyl-4-[(6-methoxy-1H-indazol-5-yl)amino]-N-methyl-5,6,7,8-tetrahydro[1]benzothieno[2,3-d]pyrimidine-7-carboxamide] was tested, and the IC50 was 0.2 nM.
For `O=C(C1CCc2c(sc3ncnc(Nc4ccc5[nH]ncc5c4)c23)C1)N1CCC(O)CC1` (racemic) [Example 85, (RS)-(4-hydroxypiperidin-1-yl)[4-(1H-indazol-5-ylamino)-5,6,7,8-tetrahydro[1]benzothieno[2,3-d]pyrimidin-7-yl]methanone], the IC50 was 11.7 nM.
With `O=C(Nc1cncnc1)C1CCc2c(sc3ncnc(Nc4ccc5[nH]ncc5c4)c23)C1` (racemic) [Example 150, (RS)-4-(1H-indazol-5-ylamino)-N-(pyrimidin-5-yl)-5,6,7,8-tetrahydro[1]benzothieno[2,3-d]pyrimidine-7-carboxamide] the IC50 was 31.2 nM.
`CCOc1cc2[nH]ncc2cc1Nc1ncnc2sc3c(c12)CCC(C(=O)N1CCCC(C#N)C1)C3` (racemic) [Example 241, (RS)-1-({4-[(6-Ethoxy-1H-indazol-5-yl)amino]-5,6,7,8-tetrahydro[1]benzothieno[2,3-d]pyrimidin-7-yl}carbonyl)piperidine-3-carbonitrile] gave an IC50 of 0.4 nM.
For `O=C(Nc1cc[nH]n1)C1CCc2c(sc3ncnc(Nc4ccc5[nH]ncc5c4)c23)C1` (racemic) [Example 89, (RS)-4-(1H-indazol-5-ylamino)-N-(1H-pyrazol-3-yl)-5,6,7,8-tetrahydro[1]benzothieno[2,3-d]pyrimidine-7-carboxamide], the IC50 was 24.1 nM.
`CN(C)C(=O)C1CCc2c(sc3ncnc(Nc4cc5cn[nH]c5cc4N(C)C)c23)C1` (racemic) [Example 251, (RS)-4-{[6-(Dimethylamino)-1H-indazol-5-yl]amino}-N,N-dimethyl-5,6,7,8-tetrahydro[1]benzothieno[2,3-d]pyrimidine-7-carboxamide] was tested, and the IC50 was 0.2 nM.
`CN(C)C(=O)C1CCc2c(sc3ncnc(Nc4cc5cn[nH]c5cc4OCCCN=[N+]=[N-])c23)C1` (racemic) [Example 276, (RS)-4-{[6-(3-Azidopropoxy)-1H-indazol-5-yl]amino}-N,N-dimethyl-5,6,7,8-tetrahydro[1]benzothieno[2,3-d]pyrimidine-7-carboxamide] gave an IC50 of 3.9 nM.
Molecule `Cc1ccc(CNC(=O)C2CCc3c(sc4ncnc(Nc5ccc6[nH]ncc6c5)c34)C2)cc1` (stereo not shown) [Example 27, 4-(1H-Indazol-5-ylamino)-N-(4-methylbenzyl)-5,6,7,8-tetrahydro[1] benzothieno [2,3-d]pyrimidine-7-carboxamide] has an IC50 of 3 nM.
`CC(=O)N1CCN(C(=O)C2CCc3c(sc4ncnc(Nc5ccc6[nH]ncc6c5)c34)C2)CC1` (racemic) [Example 97, (RS)-1-(4-{[4-(1H-indazol-5-ylamino)-5,6,7,8-tetrahydro[1]benzothieno[2,3-d]pyrimidin-7-yl]carbonyl}piperazin-1-yl)ethanone] gave an IC50 of 20.3 nM.
Work on `CN(C)CCN(Cc1ccccc1)C(=O)C1CCc2c(sc3ncnc(Nc4ccc5[nH]ncc5c4)c23)C1` (racemic) [Example 84, (RS)-N-benzyl-N-[2-(dimethylamino)ethyl]-4-(1H-indazol-5-ylamino)-5,6,7,8-tetrahydro[1]benzothieno[2,3-d]pyrimidine-7-carboxamide] yielded an IC50 of 5.5 nM.
`CC(C)OC(=O)C1CCc2c(sc3ncnc(Nc4ccc5[nH]ncc5c4)c23)C1` (racemic) [Example 74, (RS)-Propan-2-yl 4-(1H-indazol-5-ylamino)-5,6,7,8-tetrahydro[1]benzothieno[2,3-d]pyrimidine-7-carboxylate] gave an IC50 of 27.6 nM.
`CCOc1cc2[nH]ncc2cc1Nc1ncnc2sc3c(c12)CCC(C(=O)N(C)CCNC(=O)OC(C)(C)C)C3` (racemic) [Example 268, (RS)-tert-Butyl {2-[({4-[(6-ethoxy-1H-indazol-5-yl)amino]-5,6,7,8-tetrahydro[1]benzothieno[2,3-d]pyrimidin-7-yl}carbonyl)(methyl)amino]ethyl}carbamate] gave an IC50 of 0.4 nM.
With `Cn1ccnc1CNC(=O)C1CCc2c(sc3ncnc(Nc4ccc5[nH]ncc5c4)c23)C1` (racemic) [Example 165, (RS)-4-(1H-indazol-5-ylamino)-N-[(1-methyl-1H-imidazol-2-yl)methyl]-5,6,7,8-tetrahydro[1]benzothieno[2,3-d]pyrimidine-7-carboxamide] the IC50 was 16.8 nM.
For `O=C(C1CCc2c(sc3ncnc(Nc4ccc5[nH]ncc5c4)c23)C1)N1CCCCC1` (racemic) [Example 82, (RS)-[4-(1H-indazol-5-ylamino)-5,6,7,8-tetrahydro[1]benzothieno[2,3-d]pyrimidin-7-yl](piperidin-1-yl)methanone], the IC50 was 14.6 nM.
`O=C(NCCc1ccncc1)C1CCc2c(sc3ncnc(Nc4ccc5[nH]ncc5c4)c23)C1` (stereo not shown) [Example 36, 4-(1H-Indazol-5-ylamino)-N-[2-(pyridin-4-yl)ethyl]-5,6,7,8-tetrahydro[1] benzothieno [2,3-d]pyrimidine-7-carboxamide] was tested, and the IC50 was 6 nM.
`O=C(C1CCc2c(sc3ncnc(Nc4ccc5[nH]ncc5c4)c23)C1)N1CCC(CO)CC1` (racemic) [Example 132, (RS)-[4-(hydroxymethyl)piperidin-1-yl][4-(1H-indazol-5-ylamino)-5,6,7,8-tetrahydro[1]benzothieno[2,3-d]pyrimidin-7-yl]methanone] showed an IC50 of 10.3 nM.
For `O=C(C1CCc2c(sc3ncnc(Nc4ccc5[nH]ncc5c4)c23)C1)N1CCCC1` (stereo not shown) [Example 51, [4-(1H-Indazol-5-ylamino)-5,6,7,8-tetrahydro[1]benzothieno [2,3-d]pyrimidin-7-yl](pyrrolidin-1-yl)methanone], the IC50 was 15 nM.
`O=C(Nc1ccncc1)C1CCc2c(sc3ncnc(Nc4ccc5[nH]ncc5c4)c23)C1` (racemic) [Example 94, (RS)-4-(1H-indazol-5-ylamino)-N-(pyridin-4-yl)-5,6,7,8-tetrahydro[1]benzothieno[2,3-d]pyrimidine-7-carboxamide] showed an IC50 of 23.4 nM.
`O=C(NC1CCOCC1)C1CCc2c(sc3ncnc(Nc4ccc5[nH]ncc5c4)c23)C1` (racemic) [Example 123, (RS)-4-(1H-indazol-5-ylamino)-N-(tetrahydro-2H-pyran-4-yl)-5,6,7,8-tetrahydro[1]benzothieno[2,3-d]pyrimidine-7-carboxamide] was tested, and the IC50 was 11.3 nM.
Molecule `CCOc1cc2[nH]ncc2cc1Nc1ncnc2sc3c(c12)CCC(C(=O)N(C)CC1CC1)C3` (racemic) [Example 240, (RS)—N-(Cyclopropylmethyl)-4-[(6-ethoxy-1H-indazol-5-yl)amino]-N-methyl-5,6,7,8-tetrahydro[1]benzothieno[2,3-d]pyrimidine-7-carboxamide] has an IC50 of 1.1 nM.
`O=C(NC1CC1)C1CCc2c(sc3ncnc(Nc4ccc5[nH]ncc5c4)c23)C1` (racemic) [Example 80, (RS)-N-Cyclopropyl-4-(1H-indazol-5-ylamino)-5,6,7,8-tetrahydro[1]benzothieno[2,3-d]pyrimidine-7-carboxamide] gave an IC50 of 9.1 nM.
